Numbered stars: 1 amine (or outer) side, 2 acyl side, 3 side chain; on linkers, the order of the positions; unused ones are H or OH. Bridge positions count the residues as written; N and C are the ends. Square brackets hold non-standard residues; d marks the D form. Side chains are listed from the residue outwards. Peptide text beside a SMILES is read from it. * marks the point of attachment. C18 diacid = O=C(O)CCCCCCCCCCCCCCCCC(=O)*; γGlu = O=C(O)[C@H](CCC(=O)[*:2])N[*:1]; αMeF = C[C@](N)(Cc1ccccc1)C(=O)O; Aib = CC(C)(N)C(=O)O
Experiments:
[1] = Pharmacokinetic determination via IV and SC administration in Sprague Dawley rats; conditions: male, rat, plasma, 20 nmol/kg
Method: PK studies were performed to determine the half-life (T1/2) of test peptides. T1/2 describes the time taken for the maximum plasma concentration (Cmax) of a test substance to halve its steady-state concentration when in circulation.
Male SD rats were purchased from Si Bei Fu Laboratory Animal Technology Co. Ltd (China). The animals were 6-8 weeks old with body weights of 200-300 g on the dosing date. The animals were housed in a 12-hour light/12-hour dark cycle environment and were fasted overnight before dosing. The body weight of the animals were recorded before dosing, 24 h and 48 h post dosing . Animals had free access to food and drinks, and the food consumption was quantified every day.
Test articles were administered at 20 nmol/kg. Blood samples were collected from each animal via Jugular vein.
The blood samples were transferred into eppendorf low binding tube containing K2 EDTA. Above 0.150 mL blood were collected at each time point. Blood samples were centrifuged at 4,000 g for 5 minutes at 4° C. to obtain plasma. The plasma samples were stored frozen at −75±15° C. until analysis.
Concentrations of the test articles in the plasma samples were analyzed using a LC-MS/MS method. Data acquisition was performed by LabSolution version 5.89 software (Shimadzu, Kyoto, Japan). Data statistics were performed using Excel 97-2003 software. The pharmacokinetic parameters of test articles were calculated using a non-compartmental approach with Phoenix™ VVinNonlin® 6.1.
The following pharmacokinetic parameters were calculated, whenever possible from the plasma concentration versus time data: • IV administration: T1/2, C0, AUClast, AUCinf, MRTinf, Cl, Vss, Number of Points for Regression. • SC administration: Tmax, Cmax, AUClast, AUCinf, MRTinf, F, Number of Points for Regression.

[2] = target: T1, rat calcitonin receptor (rat CTR) (Rattus norvegicus, UniProt P32214); assay: cAMP production in HEK cells with stable recombinant expression of rat calcitonin receptor (rat CTR); format: cell-based; conditions: assay buffer with 0.1% BSA
T1 construct: expressed in transfected cells
T1 sequence (P32214 25-516): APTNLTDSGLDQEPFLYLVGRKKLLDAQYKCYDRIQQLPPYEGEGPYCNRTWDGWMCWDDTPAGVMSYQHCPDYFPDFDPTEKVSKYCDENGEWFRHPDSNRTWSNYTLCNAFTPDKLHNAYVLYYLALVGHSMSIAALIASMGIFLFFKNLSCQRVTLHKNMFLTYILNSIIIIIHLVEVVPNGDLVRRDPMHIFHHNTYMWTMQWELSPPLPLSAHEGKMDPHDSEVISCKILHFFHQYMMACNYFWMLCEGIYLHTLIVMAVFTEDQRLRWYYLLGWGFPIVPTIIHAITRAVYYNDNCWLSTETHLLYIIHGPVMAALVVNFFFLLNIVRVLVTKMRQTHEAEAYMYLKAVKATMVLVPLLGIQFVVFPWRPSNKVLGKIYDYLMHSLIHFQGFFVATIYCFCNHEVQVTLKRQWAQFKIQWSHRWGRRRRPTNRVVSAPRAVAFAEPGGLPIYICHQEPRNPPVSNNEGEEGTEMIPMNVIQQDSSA
Procedure, shortened: (§1)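 EC50 values come from 4-parameter logistic fits of HTRF cAMP signal, normalised to maximal calcitonin or amylin effect. Peptides were tested in duplicate for 30 min at RT in IBMX-containing (0.5 mM) BSA/HEPES buffer pH 7.4 on stable 1321N1 (human CTR, AMYR3) or HEK (rat CTR, AMYR3) lines.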

[3] = system: lean rats; assay: Rat acute food intake study; format: in vivo; conditions: lean male Sprague Dawley rats, 20 nmol/kg subcutaneously
Procedure, shortened: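 Male Sprague Dawley rats (n=7/group), fasted 6 h, received 20 nmol/kg test compound or 60 nmol/kg pramlintide subcutaneously 30 min before food return at dark onset. Food intake recorded automatically in home cages over 3 days, binned hourly and analysed as cumulative dark-period intake; body weight taken daily.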

[4] = target: T2, human amylin receptor (calcitonin receptor co-expressed with receptor activity modifying protein, RAMP3) (hAMYR3) (Homo sapiens, UniProt O60896+P30988); assay: cAMP production in 1321N1 cells with stable recombinant expression of human amylin receptor (hAMYR3); format: cell-based; conditions: for Ratio (selectivity hAMYR vs hCTR, ratio of EC50 values at the two receptors): EC50 hCTR / EC50 hAMYR3; for EC50: cAMP, 1321N1 cells, assay buffer with 0.1% BSA, read-out: EC50 (pM) hAMYR3
T2 construct: expressed in transfected cells
T2 sequence (P30988 25-474): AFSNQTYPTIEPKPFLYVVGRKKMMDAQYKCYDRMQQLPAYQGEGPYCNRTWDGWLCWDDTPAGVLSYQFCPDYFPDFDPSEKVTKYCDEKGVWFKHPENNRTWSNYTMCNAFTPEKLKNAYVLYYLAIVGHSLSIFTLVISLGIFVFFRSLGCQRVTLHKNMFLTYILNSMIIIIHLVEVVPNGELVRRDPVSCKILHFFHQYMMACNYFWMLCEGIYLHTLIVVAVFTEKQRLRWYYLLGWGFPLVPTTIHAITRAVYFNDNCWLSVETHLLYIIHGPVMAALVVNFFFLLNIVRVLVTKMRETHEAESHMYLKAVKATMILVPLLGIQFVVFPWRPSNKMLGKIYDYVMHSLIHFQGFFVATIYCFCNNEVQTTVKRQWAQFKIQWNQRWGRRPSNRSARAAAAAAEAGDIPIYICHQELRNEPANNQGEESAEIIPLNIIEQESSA
T2 sequence (O60896 24-148 partner): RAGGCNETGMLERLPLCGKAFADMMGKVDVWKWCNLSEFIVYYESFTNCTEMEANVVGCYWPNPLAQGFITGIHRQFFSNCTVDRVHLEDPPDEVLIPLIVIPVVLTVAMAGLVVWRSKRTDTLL
Procedure, shortened: as §1

| half-life ([1]; iv) | half-life ([1]; sc) | EC50 [2] | Ratio (selectivity hAMYR vs hCTR, ratio of EC50 values at the two receptors) [4] | EC50 [4] | SMILES | Cummulative food intake (% vehicle treated intake) At 12 h [3] | Cummulative food intake (% vehicle treated intake) At 24 h [3] | Cummulative food intake (% vehicle treated intake) At 48 h [3] |
| --- | --- | --- | --- | --- | --- | --- | --- | --- |
| 9.2 h | 9.7 h | 107 pM | 8 | 158 pM | CC[C@H](C)[C@H](NC(=O)[C@@H]1CCCN1C(=O)CNC(=O)[C@](C)(Cc1ccccc1)NC(=O)[C@H](CC(N)=O)NC(=O)[C@H](CC(N)=O)NC(=O)[C@H](CO)NC(=O)[C@H](CO)NC(=O)[C@H](Cc1c[nH]cn1)NC(=O)[C@H](CCCNC(=N)N)NC(=O)[C@H](CC(C)C)NC(=O)[C@H](Cc1ccccc1)NC(=O)[C@H](CCC(=O)O)NC(=O)[C@H](C)NC(=O)[C@H](CC(C)C)NC(=O)[C@H](CCCNC(=N)N)NC(=O)[C@H](CCC(N)=O)NC(=O)[C@@H](NC(=O)[C@H](C)NC(=O)[C@@H]1CSSC[C@H](NC(=O)[C@H](CCCCN)NC(=O)[C@@H](N)CCCCNC(=O)CC[C@H](NC(=O)CCCCCCCCCCCCCCCCC(=O)O)C(=O)O)C(=O)N[C@@H](CC(N)=O)C(=O)N[C@@H]([C@@H](C)O)C(=O)N[C@@H](C)C(=O)N[C@@H]([C@@H](C)O)C(=O)N1)[C@@H](C)O)C(=O)N[C@@H](CC(C)C)C(=O)N1CCC[C@H]1C(=O)N1CCC[C@H]1C(=O)N[C@H](C(=O)N[C@@H](CC(N)=O)C(=O)N[C@H](C(=O)NCC(=O)N[C@@H](CO)C(=O)N[C@@H](CC(N)=O)C(=O)N[C@H](C(=O)N[C@@H](Cc1ccc(O)cc1)C(N)=O)[C@@H](C)O)C(C)C)[C@@H](C)O [Peptide 12, K(γE-C18diacid)K[CNTATC]ATQRLAEFLRHSSNN(αMePhe)GPILPPTNVGSNTY-amide] (H-K([γGlu-C18 diacid])KCNTATCATQRLAEFLRHSSNN[αMeF]GPILPPTNVGSNTY-NH2; disulfide 3-8; N-terminus assumed) | 9.4 % vehicle treated intake | 7.5 % vehicle treated intake | 23.6 % vehicle treated intake |
| 12 h | 13.6 h | 3090 pM | 15 | 319 pM | CC[C@H](C)[C@H](NC(=O)[C@@H]1CCCN1C(=O)CNC(=O)[C@](C)(Cc1ccccc1)NC(=O)[C@H](CC(N)=O)NC(=O)[C@H](CC(N)=O)NC(=O)[C@H](CO)NC(=O)[C@H](CO)NC(=O)[C@H](Cc1c[nH]cn1)NC(=O)[C@H](CCCNC(=N)N)NC(=O)[C@H](CC(C)C)NC(=O)[C@H](Cc1ccccc1)NC(=O)[C@H](CC(N)=O)NC(=O)[C@H](C)NC(=O)[C@H](CC(C)C)NC(=O)[C@H](CCCNC(=N)N)NC(=O)[C@H](CCC(N)=O)NC(=O)[C@@H](NC(=O)[C@H](C)NC(=O)[C@@H]1CSSC[C@H](NC(=O)[C@@H](N)CCCCNC(=O)CC[C@H](NC(=O)CC[C@H](NC(=O)CCCCCCCCCCCCCCCCC(=O)O)C(=O)O)C(=O)O)C(=O)N[C@@H](CC(N)=O)C(=O)N[C@@H]([C@@H](C)O)C(=O)N[C@@H](C)C(=O)N[C@@H]([C@@H](C)O)C(=O)N1)[C@@H](C)O)C(=O)N[C@@H](CC(C)C)C(=O)N1CCC[C@H]1C(=O)N1CCC[C@H]1C(=O)N[C@H](C(=O)N[C@@H](CCC(=O)O)C(=O)N[C@H](C(=O)NCC(=O)N[C@@H](CO)C(=O)N[C@@H](CC(N)=O)C(=O)N[C@H](C(=O)N[C@@H](Cc1ccc(O)cc1)C(N)=O)[C@@H](C)O)C(C)C)[C@@H](C)O [Peptide 18, K(γE-γE-C18diacid)[CNTATC]ATQRLANFLRHSSNN(αMePhe)GPILPPTEVGSNTY-amide] (H-K([γGlu-γGlu-C18 diacid])CNTATCATQRLANFLRHSSNN[αMeF]GPILPPTEVGSNTY-NH2; disulfide 2-7; N-terminus assumed) | 45.8 % vehicle treated intake | 46.9 % vehicle treated intake | 68.8 % vehicle treated intake |
| 10.3 h | 9 h | 2870 pM | 10.4 | 553 pM | CC[C@H](C)[C@H](NC(=O)[C@@H]1CCCN1C(=O)CNC(=O)[C@H](Cc1ccccc1)NC(=O)[C@H](CC(N)=O)NC(=O)[C@H](CC(N)=O)NC(=O)[C@H](CO)NC(=O)[C@H](CO)NC(=O)[C@H](Cc1c[nH]cn1)NC(=O)C(C)(C)NC(=O)[C@H](CC(C)C)NC(=O)[C@H](Cc1ccccc1)NC(=O)[C@H](CC(N)=O)NC(=O)[C@H](C)NC(=O)[C@H](CC(C)C)NC(=O)[C@H](CCCNC(=N)N)NC(=O)[C@H](CCC(N)=O)NC(=O)[C@@H](NC(=O)[C@H](C)NC(=O)[C@@H]1CSSC[C@H](NC(=O)[C@H](CCCCN)NC(=O)[C@@H](N)CCCCNC(=O)CC[C@H](NC(=O)CCCCCCCCCCCCCCCCC(=O)O)C(=O)O)C(=O)N[C@@H](CC(N)=O)C(=O)N[C@@H]([C@@H](C)O)C(=O)N[C@@H](C)C(=O)N[C@@H]([C@@H](C)O)C(=O)N1)[C@@H](C)O)C(=O)N[C@@H](CC(C)C)C(=O)N1CCC[C@H]1C(=O)N1CCC[C@H]1C(=O)N[C@H](C(=O)N[C@@H](CC(N)=O)C(=O)N[C@H](C(=O)NCC(=O)N[C@@H](CO)C(=O)N[C@@H](CC(N)=O)C(=O)N[C@H](C(=O)N[C@@H](Cc1ccc(O)cc1)C(N)=O)[C@@H](C)O)C(C)C)[C@@H](C)O [Peptide 129] (H-K([γGlu-C18 diacid])KCNTATCATQRLANFL[Aib]HSSNNFGPILPPTNVGSNTY-NH2; disulfide 3-8; N-terminus assumed) | 29 % vehicle treated intake | 32.4 % vehicle treated intake | 51 % vehicle treated intake |
| 10 h | 10.8 h | 1850 pM | 26 | 174 pM | CC[C@H](C)[C@H](NC(=O)[C@@H]1CCCN1C(=O)CNC(=O)[C@](C)(Cc1ccccc1)NC(=O)[C@H](CC(N)=O)NC(=O)[C@H](CC(N)=O)NC(=O)[C@H](CO)NC(=O)[C@H](CO)NC(=O)[C@H](Cc1c[nH]cn1)NC(=O)[C@H](CCCNC(=N)N)NC(=O)[C@H](CC(C)C)NC(=O)[C@H](Cc1ccccc1)NC(=O)[C@H](CC(N)=O)NC(=O)[C@H](C)NC(=O)[C@H](CC(C)C)NC(=O)[C@H](CCCNC(=N)N)NC(=O)[C@H](CCC(N)=O)NC(=O)[C@@H](NC(=O)[C@H](C)NC(=O)[C@@H]1CSSC[C@H](NC(=O)[C@@H](N)CCCCNC(=O)CC[C@H](NC(=O)CC[C@H](NC(=O)CCCCCCCCCCCCCCCCC(=O)O)C(=O)O)C(=O)O)C(=O)N[C@@H](CC(N)=O)C(=O)N[C@@H]([C@@H](C)O)C(=O)N[C@@H](C)C(=O)N[C@@H]([C@@H](C)O)C(=O)N1)[C@@H](C)O)C(=O)N[C@@H](CC(C)C)C(=O)N1CCC[C@H]1C(=O)N1CCC[C@H]1C(=O)N[C@H](C(=O)N[C@@H](CC(N)=O)C(=O)N[C@H](C(=O)NCC(=O)N[C@@H](CO)C(=O)N[C@@H](CC(N)=O)C(=O)N[C@H](C(=O)N[C@@H](Cc1ccc(O)cc1)C(N)=O)[C@@H](C)O)C(C)C)[C@@H](C)O [Peptide 20, K(γE-γE-C18diacid)[CNTATC]ATQRLANFLRHSSNN(αMePhe)GPILPPTNVGSNTY-amide] (H-K([γGlu-γGlu-C18 diacid])CNTATCATQRLANFLRHSSNN[αMeF]GPILPPTNVGSNTY-NH2; disulfide 2-7; N-terminus assumed) | 27 % vehicle treated intake | 26.2 % vehicle treated intake | 49.7 % vehicle treated intake |
